Read-outs that look alike come from different tables or passages of the source.

The values below come from patent publication EP2416773B1, “CHECKPOINT KINASE 1 INHIBITORS FOR POTENTIATING DNA DAMAGING AGENTS” (Array Biopharma, Inc., priority 2009, dated 2010).

For data set [1], the system named is subcutaneous HT-29 xenografts. In words: Tumor growth inhibition experiment, CPT11 and Compound 5 (Example 12). Type of data set: in vivo. Particulars: for Growth Delay / Maximum % Body Weight Loss: single agent, CPT11 100 mg/kg IP Q10Dx2, Compound 5 PO BID 3 days, dose not given. As for the experimental part:
Female nude mice were inoculated subcutaneously with 4 X 10^6 HT-29 tumor cells in 1X PBS (100 µL). Twelve days later, mice were randomized into groups of 7 with an average tumor volume in each group of approximately 200 mm^3. […] Tumor size and animal body weight were measured over the course of the study on the days indicated with data points in Figure 13. Tumor volume was calculated using the formula: volume = (width^2 x length)/2. No mortalities occurred over the course of this study.

The subject of data set [2] is subcutaneous HT-29 xenografts. Type of data set: in vivo. Particulars: single agent; CPT11 100 mg/kg IP Q10Dx2; Compound 2 25 mg/kg PO BID. Here is the method: Female nude mice were inoculated subcutaneously with 5 X 10^6 HT-29 tumor cells in IX PBS (100 µL). Twelve days later, mice were randomized into groups of 8 with an average tumor volume in each group of approximately 215 mm^3. […] Tumor size and animal body weight were measured over the course of the study on the days indicated with data points in Figure 6. Tumor volume was calculated using the formula: volume = (width^2 X length)/2.

A short description of data set [3]: Tolerability of CPT11 and Compound 2 with 12, 24 or 48 hour delay in naive mice (Example 4). The format is in vivo. As to conditions: single agent; CPT11 100 mg/kg IP Q10Dx2; Compound 2 25 mg/kg PO BID 3 days per cycle.
The subject of data set [4] is subcutaneous HT-29 xenografts. In words: Tumor growth inhibition experiment with tolerability, CPT11 and Compound 1, simultaneous or 24 hour delay (Example 3). The format is in vivo. As to conditions: single agent; CPT11 100 mg/kg IP single dose; Compound 1 50 mg/kg PO BID 3 consecutive days. Here is the method:
Female nude mice were inoculated subcutaneously with 5 X 10^6 HT-29 tumor cells in 1X PBS (100 µL). Twelve days later, mice were randomized into groups of 6 with an average tumor volume in each group of approximately 250 mm^3. […] Tumor size and animal body weight were measured over the course of the study on the days indicated with data points in Figure 5. Tumor volume was calculated using the formula volume = (width^2 X length)/2.

Data set [5] has as its system subcutaneous HT-29 xenografts. Type of data set: in vivo. Particulars: single agent; gemcitabine 140 mg/kg IP Q7Dx2; Compound 2 PO BID 3 days, dose not given. Here is the method:
Female nude mice were inoculated subcutaneously with 5 X 10^6 HT-29 tumor cells in IX PBS (100 µL). Fourteen days later, mice were randomized into groups of 8 with an average tumor volume in each group of approximately 260 mm^3. Sorted animals were administered gemcitabine (140 mg/kg; IP) on a Q7Dx2 cycles schedule. Compound 2 (10 or 25mg/kg: PO, BID) administration was initiated 24 hours post gemcitabine and endured for 3 days as indicated. Tumor size and animal body weight were measured over the course of the study on the days indicated with data points in Figure 9. Tumor volume was calculated using the formula: volume = (width^2 X length)/2. No mortalities occurred over the course of this study.

For data set [6], the system named is subcutaneous HT-29 xenografts. Description: Tumor growth inhibition experiment, CPT11 and Compound 2 (Example 11). Type of data set: in vivo, nude mice. Particulars: in combination with CPT-11; Compound 2 10 or 25 mg/kg PO BID. Here is the method:
Female nude mice were inoculated subcutaneously with 5 X 10^6 HT-29 tumor cells in 1X PBS (100 µL). Fourteen days later, mice were randomized into groups of 8 with an average tumor volume in each group of approximately 260 mm^3. […] Tumor size and animal body weight were measured over the course of the study on the days indicated with data points in Figure 12. Tumor volume was calculated using the formula: volume= (width^2 x length)/2.

A short description of data set [7]: Compound 2 exposure in HT-29 tumor bearing mice after CPT11 (Example 6). The format is in vivo, nude mice. As to conditions: Compound 2 25 mg/kg PO, from 24 hours after CPT11 100 mg/kg; single dose vs 3 consecutive days BID; t-test > 0.05.
Data set [8] relates to MiaPaCa2 pancreatic carcinoma xenografts. Type of data set: in vivo. Particulars: for % Tumor Growth Inhibition / Growth Delay: single agent, gemcitabine 120 mg/kg IP Q7Dx3, Compound 5 given as 10 mg/kg in table. Here is the method:
female nude mice were inoculated subcutaneously with 7 X 10^6 MiaPaCa2 tumor cells in a 1:1 1X PBS and matrigel suspension (100 µL). Fifteen days later, mice were randomized into groups of 7 with an average tumor volume in each group of approximately 315 mm^3. Sorted animals were administered gemcitabine (120 mg/kg; IP) on a Q7Dx3 cycles schedule. […] Tumor size and animals body weight were measured over the course of the study on the days indicated with data points in Figure 11. Tumor volume was calculated using the formula: volume = (width^2 X length)/2. No mortalities occurred over the course of this study.

A further data set concerns phospho-cdc2. Description: Inhibition of CPT11 induced phosphorylation of cdc2 in HT-29 tumors, immunoblot (Example 7). As to conditions: extended dosing: 5, 10 or 25 mg/kg PO BID 3 consecutive days from 24 hours after CPT11 100 mg/kg IP; tumors harvested 96 hours post CPT11. The format is in vivo, nude mice. As for the experimental part: Female nude mice were inoculated subcutaneously with 5 X 10^6 HT-29 tumor cells in IX PBS (100 µL). Twenty nine days later, mice were randomized into groups of 3 with an average tumor volume in each group of approximately 500 mm^3. […] Compound 5 was given as a single dose at 25 mg/kg, or alternatively 5, 10, or 25 mg/kg doses were given for 3 consecutive days on BID schedules. […] Phosphorylation of cdc2 was assessed by immunoblot and normalized to total ERK expression. Results are expressed as POC.
(In western blotting, separated proteins are transferred to a membrane and probed.)

Data set [9] has as its system subcutaneous HT-29 xenografts. Type of data set: in vivo. As to conditions: for Growth Delay: gemcitabine 120 mg/kg IP Q7Dx3. As for the experimental part: Female nude mice were inoculated subcutaneously with 5 X 10^6 HT-29 tumor cells in IX PBS (100 µL). Fourteen days later, mice were randomized into groups of 7 with an average tumor volume in each group of approximately 200 mm^3. Sorted animals were administered gemcitabine (120 mg/kg; IP) on a Q7Dx3 cycles schedule. Compound 5 (5, 10 or 25mg/kg; PO. BID) administration was initiated 24 hours post gemcitabine and endured for 3 days as indicated. Tumor size and animal body weight were measured over the course of the study on the days indicated with data points in Figure 10. Tumor volume was calculated using the formula: volume = (width^2 X length)/2. No mortalities occurred over the course of this study.

The mark [10] stands for this setting: single agent, Compound 5 10 mg/kg PO BID 3 days.

Take `CCc1c2c(nc3ccc(OC(=O)N4CCC(N5CCCCC5)CC4)cc13)-c1cc3c(c(=O)n1C2)COC(=O)[C@]3(O)CC` [CPT11, irinotecan, reference compound]: the “Growth Delay” value was found to be 16.6 days in data set [1] and 16 days in data set [2]. The “Maximum % Body Weight Loss” value is 6.3, Day 18% in data set [1]; 3.4. Day 14% in [3]; 3.9, Day 13% in data set [4]. Further, the “% Mortality” value in data set [3] and in data set [4] was 0% in each case.

Take `N[C@@H]1CCCN(c2c(Br)cnc3[nH]cc(NC(=O)c4cccnc4)c23)C1` [Compound 1, (R)-N-(4-(3-aminopiperidin-1-yl)-5-bromo-1H-pyrrolo[2,3-b]pyridin-3-yl)nicotinamide]: in [4], the “Maximum % Body Weight Loss” value was 3.9, Day 13%.

For `CC(C)C(=O)Nc1c[nH]c2ncc(Br)c(N3CCC[C@@H](N)C3)c12` [Compound 2, (R)-N-(4-(3-aminopiperidin-1-yl)-5-bromo-1H-pyrrolo[2,3-b]pyridin-3-yl)isobutyramide], the “Growth Delay” value in data set [5] worked out at 4.78 days. Further, in data set [2], the “Growth Delay” value was determined as 1.8 days and the “Maximum % Body Weight Loss” value was 7.2, Dav 3%. The “inhibition of tumor growth” value in data set [6] is listed as “dose related inhibition of tumor growth”. Further, in [7], the “exposure following a single dose or administration for 3 days” value is on record as “not statistically_different”. Moreover, in data set [3], the “% Mortality” value is reported as 0% and the “Maximum % Body Weight Loss” value was 0.3, Day 17%.

`N[C@@H]1CCCN(c2c(Br)cnc3[nH]cc(NC(=O)C4CC4)c23)C1` [Compound 5, (R)-N-(4-(3-aminopiperidin-1-yl)-5-bromo-1H-pyrrolo[2,3-b]pyridin-3-yl)cyclopropanecarboxamide]: in data set [8] (in combination with gemcitabine, MiaPaCa2 pancreatic carcinoma xenografts), the tumor growth entry is “inhibits tumor growth”. Also, in data set [8], the “% Tumor Growth Inhibition” value is recorded as 25,5% and the “Growth Delay” value is 6.1 days. In addition, in the data set with phospho-cdc2, the “inhibition of CPT11 induced phospho-cdc2” value is “dose-related inhibition”. Also, the “inhibition of tumor growth” value in data set [9] (in combination with gemcitabine, Compound 5 5, 10 or 25 mg/kg PO BID) is “dose related inhibition of tumor growth”. In addition, in data set [9] (setting [10]), the “% Regression” value came to 31.6% and the “Growth Delay” value came out at 5.7 days. In addition, the “inhibition of tumor growth” value in data set [1] (in combination with CPT-11, Compound 5 5, 10 or 25 mg/kg PO BID) was “dose related inhibition of tumor growth”. Further, in data set [1], the “Growth Delay” value amounted to 7.7 days and the “Maximum % Body Weight Loss” value is given as 2.5, Dav 18%.

Consider `Nc1ccn([C@@H]2O[C@H](CO)[C@@H](O)C2(F)F)c(=O)n1` [Gemcitabine, gemcitabine, reference compound], for which the “% Tumor Growth Inhibition” value in data set [8] is on record as 6.6%. Besides, the entries for the “Growth Delay” value in data set [8], in data set [9] (setting [10]) and in [5] were 2.2 days, 11.5 days and 4.39 days, respectively.
